Test results: patent US20250066310A1, “MULTI-SUBSTITUTED URACIL DERIVATIVE AND PREPARATION METHOD THEREFOR AND APPLICATION THEREOF” (HANGZHOU ADAMERCK PHARMLABS INC., priority 2021, published 2025)
Marks after values point to notes of the source that are not given here.

Key:
ICR mice = assay: Effect on in vivo bleeding time in mice (tail cut); conditions: 100 mg/kg i.g. once daily for 4 days
Protocol: A normal control group (blank), positive control group (clopidogrel) and experimental groups were set up with 10 ICR mice (male, weighed about 25 g) in each group. Animals in each group were administered the corresponding drug solution by oral gavage (i.g.) at 0.1 ml/10 g body weight, and the blank control group was given distilled water, once daily for 4 days. On the 4th day, 1 h after the administration of the drug, the animals were anesthetized by intraperitoneal injection of sodium barbiturate at a dose of about 50 mg/kg, and 20 min later, the tails of the mice were cut at a distance of 3 mm from the tip of the tail, and at regular intervals, absorbent paper was used to dip the blood at the severed tails until no blood exuded, which was recorded as the bleeding time, and the results of the experiment were shown in Table 2.
Calculation equation for prolongation of bleeding time: […]

[1] = system: acute inflammatory response caused by ellagic acid (serum cytokines); assay: Antibody microarray detection of serum factors in ellagic acid model mice; format: in vivo, ICR mice; set-up: TNFa / IL-6 / IL-1b / IL-5 / IL-13 / IL-1α / IL-1β / IL-2 / IL-3 / IL-4 / IFNg / CD40: unit not given here
Protocol: Experimental methods: ICR male mice, weighed about 25 g, were randomly divided into four groups: normal group, ellagic acid model group, 1-1 group, and 1-22 group, with four mice in each group. Mice in 1-1 group and 1-22 group were given 1-1, 100 mg/kg and 1-22, 100 mg/kg by gavage once a day respectively. 1 h after the third administration, except for the normal control group, the other three groups of mice were injected into the tail vein with 0.10 mL/10 g of 0.3% ellagic acid saline solution, and 1 h after injection, whole blood was collected from each animal, and centrifuged (3,000 rpm/min) for 10 min after 30 min of standing, and then centrifuged to obtain the serum. The serum from each group of animal was mixed in an EP tube, transported at −80° C., and sent for antibody microarray detection.

[2] = system: rats with focal permanent cerebral ischemia (MCAO); assay: Focal permanent cerebral ischemic injury (MCAO), administration from 3 h post-ischemia; format: in vivo, SD rats; conditions: for Number of survivors after 15 days animal: 15 enrolled; for Mortality (%): 15-day; for Neurological function score on day 15: Bederson's method; for Weight on day 1 / Weight on day 5 / Weight on day 15: mean body weight
[3] = Table 16, pooled serum, 100 mg/kg by gavage
[4] = Table 17, pooled serum, 100 mg/kg by gavage
[5] = Table 18, pooled serum, 100 mg/kg by gavage
[6] = Table 19, pooled serum, 100 mg/kg by gavage
[7] = middle and high dose groups compared with the model group

`CCOC(=O)CCNC(=O)CCNc1cc(=O)n(C)c(=O)n1C` [Compound 1-1] was tested, and the “Bleeding time prolongation (%)” value (ICR mice) was −8.89%, the IL-6 [1, 3] was 18,375.64* and the RANTES/ccl5 [1, 3] was 2,825.89*. The TNFa [1, 3] was 386.79, the IL-1b ([1]; Table 16, pooled serum, 100 mg/kg by gavage once a day x3, 1 h after ellagic acid) was 312.69 and the IL-1α [1, 4] was 1,118.99*. The IL-1β [1, 4] was 312.69, the IL-2 [1, 4] was 565.56 and the IL-3 [1, 4] was 1,106.55. The IL-4 [1, 4] was 1,367.20, the IL-5 [1, 4] was 285.74* and the IL-6 [1, 4] was 18,375.64*. For the same compound, the IL-13 [1, 4] was 800.30*, the Eotaxin/CCL11 [1, 5] was 4,696.55 and the MCP1/CCL2 [1, 5] was 3,045.61. The MIP-3a/CCL20 [1, 5] was 1,505.55*, the RANTES/CCL5 [1, 5] was 2,825.89* and the CD40 [1, 6] was 639.15. The IFNg [1, 6] was 295.07*, the “number of down-regulated differential proteins” value ([1]; interleukin factors (Table 17), compared with the model group) was “four” and the “Number of survivors after 15 days animal” value ([2]; 10 mg/kg by gavage once a day) was 8. The “Number of survivors after 15 days animal” value ([2]; 20 mg/kg by gavage once a day) was 11, the “Number of survivors after 15 days animal” value ([2]; 40 mg/kg by gavage once a day) was 10 and the “Mortality (%)” value ([2]; 10 mg/kg by gavage) was 46.67%. For the same compound, the “Mortality (%)” value ([2]; 20 mg/kg by gavage) was 26.67%, the “Mortality (%)” value ([2]; 40 mg/kg by gavage) was 33.33% and the “Neurological function score on day 15” value ([2]; 10 mg/kg) was 0.88. The “Neurological function score on day 15” value ([2]; 20 mg/kg) was 0.75, the “Neurological function score on day 15” value ([2]; 40 mg/kg) was 0.5 and the “Weight on day 1” value ([2]; 10 mg/kg) was 273.73 g. For the same compound, the “Weight on day 5” value ([2]; 10 mg/kg) was 240.73 g, the “Weight on day 15” value ([2]; 10 mg/kg) was 281.38 g and the “Weight on day 1” value ([2]; 20 mg/kg) was 281.93 g. For the same compound, the “Weight on day 5” value ([2]; 20 mg/kg) was 253.67 g, the “Weight on day 15” value ([2]; 20 mg/kg) was 281.10 g and the “Weight on day 1” value ([2]; 40 mg/kg) was 274.93 g. For the same compound, the “Weight on day 5” value ([2]; 40 mg/kg) was 288.25 g, the “Weight on day 15” value ([2]; 40 mg/kg) was 316.80 g and the “infarction rate (TTC staining)” value [2, 7] was “significantly reduced”. The water content [2, 7] was “significantly reduced”.
